Measured values published in US20020137929A1, “1 - (3-heterocyclylphenyl) isothiourea, -isourea, -guanidine and -amidine herbicidal agents” (Intellectual Property Department, BASF Aktiengesellschaft, priority 1998, published 2002).

Assays:
ORYSAT (Rice, Tebonnet) [1] = assay: Postemergence herbicidal evaluation; type: in vivo, Oryza sativa, (L.) Tebonnet; details: postemergence
Procedure, shortened: (§1)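 Seedlings grown about two weeks were sprayed at 40 psi with compound dispersed in 50/50 acetone/water plus 0.5% TWEEN 20, at about 0.0156 to 0.500 kg/ha. Plants were kept in the greenhouse and scored 4–5 weeks later on a 0–9 visual scale against untreated controls.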

MOOVA (Monochoria) = assay: Preemergence weed control under flooded paddy conditions; type: in vivo, Monochoria vaginalis; details: rated 3-4 weeks after treatment
Procedure, shortened: (§2)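 Silt loam, seeds in top 0.5 cm; flood held 1.5-3 cm; test cpd as acetone/water 50/50 into flood water, ~0.0313-0.500 kg/ha a.i.; greenhouse 3-4 wk; visual 0-9 score vs control.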

CYPSE (Flatsedge) [2] = assay: Postemergence weed control under flooded paddy conditions; type: in vivo, Cyperus serotinus; details: postemergence weeds, rated 3 to 4 weeks after treatment
Text: (§3) Results of herbicide evaluation are expressed on a rating scale (0-9). The scale is based upon a visual observation of plant stand, vigor, malformation, size, chlorosis and overall plant appearance as compared with a control.
(§4) Plastic containers containing weeds which are 3 to 5 cm tall and rice seedlings at the 1.5 to 2.5 leaf stage are flooded with water. The water is maintained at 1.5 to 3 cm above the soil surface for the duration of the experiment. Test compounds are applied as aqueous/ acetone mixtures 50/50 v/v directly into the flood water to provide the equivalent of about 0.0313 to 0.500 kg/ha of active ingredient. The treated containers are placed on greenhouse benches and cared for in accordance with conventional greenhouse procedures. Three to four weeks after treatment, the test is terminated and each container is examined and herbicidal effect rated according to the rating system provided in Example 37. The compounds evaluated are reported by compound number given in Example 37.

GALAP (Galium) = assay: Postemergence herbicidal evaluation; type: in vivo, Galium aparine; details: postemergence
Procedure, shortened: as §1

[3] = system: GLXMAW (Soybean, Williams); assay: Preemergence herbicidal evaluation; type: in vivo, Glycine max, (L.) Merr. cv Williams; details: preemergence, rated 4-5 weeks after treatment, 0-9 scale
Procedure, shortened: (§5)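 Herbicidal effect scored visually, 0-9, at 4 to 5 weeks against a control; compound applied preemergence by aqueous acetone spray to seeded soil at about 0.0156 to 0.500 kg/ha.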

ZEAMX (Corn, Field) = assay: Postemergence herbicidal evaluation; type: in vivo, Zea mays; details: postemergence
Procedure, shortened: as §1

ORYSAT (Rice, Tebonnet) [4] = assay: Preemergence herbicidal evaluation; type: in vivo, Oryza sativa, (L.) Tebonnet; details: preemergence, rated 4-5 weeks after treatment, 0-9 scale
Procedure, shortened: as §5

CYPIR (Rice Flatsedge) = assay: Postemergence weed control under flooded paddy conditions; type: in vivo, Cyperus iria; details: postemergence weeds, rated 3 to 4 weeks after treatment
Text: as §3, §4

CASOB (Sicklepod) = assay: Postemergence herbicidal evaluation; type: in vivo, Cassia obtusifolia; details: postemergence
Procedure, shortened: as §1

CYPSE (Flatsedge) [5] = assay: Preemergence weed control under flooded paddy conditions; type: in vivo, Cyperus serotinus; details: rated 3-4 weeks after treatment
Procedure, shortened: as §2

[6] = system: CHEAL (Lambsquarters, Common); assay: Postemergence herbicidal evaluation; type: in vivo, Chenopodium album; details: postemergence
Procedure, shortened: as §1

AMBEL (Ragweed, Common) = assay: Preemergence herbicidal evaluation; type: in vivo, Ambrosia artemisifolia; details: preemergence, rated 4-5 weeks after treatment, 0-9 scale
Procedure, shortened: as §5

SETVI (Foxtail, Green) = assay: Preemergence herbicidal evaluation; type: in vivo, Setaria viridis; details: preemergence, rated 4-5 weeks after treatment, 0-9 scale
Procedure, shortened: as §5

In the case of `CN1C(=O)C(CC(=O)NS(C)(=O)=O)SC1=Nc1cc(-n2c(=O)cc(C(F)(F)F)n(C)c2=O)c(F)cc1Cl` (stereo not drawn) [Compound 97, 2-{{2-Chloro-5-[3,6-dihydro-3-methyl-2,6-dioxo-4-(trifluoromethyl)-1(2H)-pyrimidinyl]-4-fluorophenyl}imino}-3-methyl-N-(methylsulfonyl)-4-oxo-5-thiazolidineacetamide], the ORYSAT herbicidal rating (ORYSAT (Rice, Tebonnet) [1]; rate 0.0156 kg/ha) is reported as 0.5, the ORYSAT herbicidal rating (ORYSAT (Rice, Tebonnet) [1]; rate 0.0313 kg/ha) is reported as 0.5 and the ORYSAT herbicidal rating (ORYSAT (Rice, Tebonnet) [1]; rate 0.0625 kg/ha) is reported as 2.5. The ORYSAT herbicidal rating (ORYSAT (Rice, Tebonnet) [1]; rate 0.1250 kg/ha) was 3.0, the “MOOVA herbicidal effect rating” value (MOOVA (Monochoria); 0.0313 kg/ha) was 9.0 and the “MOOVA herbicidal effect rating” value (MOOVA (Monochoria); 0.0625 kg/ha) was 9.0. The “MOOVA herbicidal effect rating” value (MOOVA (Monochoria); 0.1250 kg/ha) was 9.0, the “MOOVA herbicidal effect rating” value (MOOVA (Monochoria); 0.2500 kg/ha) was 9.0 and the “Herbicidal rating CYPSE” value (CYPSE (Flatsedge) [2]; Rate 0.0313 kg/ha) was 0.0. For the same molecule, the “Herbicidal rating CYPSE” value (CYPSE (Flatsedge) [2]; Rate 0.0625 kg/ha) was 0.0, the “Herbicidal rating CYPSE” value (CYPSE (Flatsedge) [2]; Rate 0.1250 kg/ha) was 0.0 and the “Herbicidal rating CYPSE” value (CYPSE (Flatsedge) [2]; Rate 0.2500 kg/ha) was 3.0. For the same molecule, the GALAP herbicidal rating (GALAP (Galium); rate 0.0156 kg/ha) was 0.0, the GALAP herbicidal rating (GALAP (Galium); rate 0.0313 kg/ha) was 0.0 and the GALAP herbicidal rating (GALAP (Galium); rate 0.0625 kg/ha) was 1.0. For the same molecule, the GALAP herbicidal rating (GALAP (Galium); rate 0.1250 kg/ha) was 1.0, the GLXMAW rating ([3]; 0.1250 kg/ha) was 0.0 and the GLXMAW rating ([3]; 0.2500 kg/ha) was 0.0. For the same molecule, the GLXMAW rating ([3]; 0.5000 kg/ha) was 3.0, the ZEAMX herbicidal rating (ZEAMX (Corn, Field); rate 0.0156 kg/ha) was 3.5 and the ZEAMX herbicidal rating (ZEAMX (Corn, Field); rate 0.0313 kg/ha) was 4.0. The ZEAMX herbicidal rating (ZEAMX (Corn, Field); rate 0.0625 kg/ha) was 4.0, the ZEAMX herbicidal rating (ZEAMX (Corn, Field); rate 0.1250 kg/ha) was 5.0 and the ORYSAT rating (ORYSAT (Rice, Tebonnet) [4]; 0.1250 kg/ha) was 0.0. The ORYSAT rating (ORYSAT (Rice, Tebonnet) [4]; 0.2500 kg/ha) was 1.0, the ORYSAT rating (ORYSAT (Rice, Tebonnet) [4]; 0.5000 kg/ha) was 1.0 and the “Herbicidal rating CYPIR” value (CYPIR (Rice Flatsedge); Rate 0.0313 kg/ha) was 0.0. The “Herbicidal rating CYPIR” value (CYPIR (Rice Flatsedge); Rate 0.0625 kg/ha) was 0.0, the “Herbicidal rating CYPIR” value (CYPIR (Rice Flatsedge); Rate 0.1250 kg/ha) was 3.0 and the “Herbicidal rating CYPIR” value (CYPIR (Rice Flatsedge); Rate 0.2500 kg/ha) was 4.0. For the same molecule, the CASOB herbicidal rating (CASOB (Sicklepod); rate 0.0156 kg/ha) was 0.0, the CASOB herbicidal rating (CASOB (Sicklepod); rate 0.0313 kg/ha) was 0.0 and the CASOB herbicidal rating (CASOB (Sicklepod); rate 0.0625 kg/ha) was 0.0. For the same molecule, the CASOB herbicidal rating (CASOB (Sicklepod); rate 0.1250 kg/ha) was 1.0, the “CYPSE herbicidal effect rating” value (CYPSE (Flatsedge) [5]; 0.0313 kg/ha) was 0.0 and the “CYPSE herbicidal effect rating” value (CYPSE (Flatsedge) [5]; 0.0625 kg/ha) was 0.0. For the same molecule, the “CYPSE herbicidal effect rating” value (CYPSE (Flatsedge) [5]; 0.1250 kg/ha) was 0.0, the “CYPSE herbicidal effect rating” value (CYPSE (Flatsedge) [5]; 0.2500 kg/ha) was 3.0 and the CHEAL herbicidal rating ([6]; rate 0.0156 kg/ha) was 0.0. The CHEAL herbicidal rating ([6]; rate 0.0313 kg/ha) was 1.0, the CHEAL herbicidal rating ([6]; rate 0.0625 kg/ha) was 4.0 and the CHEAL herbicidal rating ([6]; rate 0.1250 kg/ha) was 7.0. The AMBEL rating (AMBEL (Ragweed, Common); 0.1250 kg/ha) was 0.0, the AMBEL rating (AMBEL (Ragweed, Common); 0.2500 kg/ha) was 4.0 and the AMBEL rating (AMBEL (Ragweed, Common); 0.5000 kg/ha) was 4.0. For the same molecule, the SETVI rating (SETVI (Foxtail, Green); 0.1250 kg/ha) was 0.0, the SETVI rating (SETVI (Foxtail, Green); 0.2500 kg/ha) was 1.0 and the SETVI rating (SETVI (Foxtail, Green); 0.5000 kg/ha) was 7.0.
